Test results reported in ChEMBL document CHEMBL5465560, “Selectivity Literature for EUbOPEN Chemogenomic Library” (2024).

Columns and labels:
Misshapen-like kinase 1 = Misshapen-like kinase 1 (Homo sapiens, UniProt Q8N4C8); experiment: Selectivity interaction (SelectScreen Kinase Profiling (Thermo Fisher Scientific)) EUB0001558a MINK1; conditions: at 1 µM
[1] = target: Calcium/calmodulin-dependent protein kinase type II subunit alpha (Homo sapiens, UniProt Q9UQM7); experiment: Selectivity interaction (Upstate Kinase Profiler service (Millipore, enzymatic assay)) EUB0000056c CAMK2A
[2] = target: TRAF2 and NCK-interacting protein kinase (Homo sapiens) (UniProt Q9UKE5); experiment: Selectivity interaction (KinomeScan (DiscoverX)) EUB0000655a TNIK; conditions: at 10 µM
[3] = target: RAC-beta serine/threonine-protein kinase (Homo sapiens) (UniProt P31751); experiment: Selectivity interaction (ProQinase) EUB0000171b AKT2
Chain of RAC-beta serine/threonine-protein kinase (Homo sapiens) (P31751 whole entry): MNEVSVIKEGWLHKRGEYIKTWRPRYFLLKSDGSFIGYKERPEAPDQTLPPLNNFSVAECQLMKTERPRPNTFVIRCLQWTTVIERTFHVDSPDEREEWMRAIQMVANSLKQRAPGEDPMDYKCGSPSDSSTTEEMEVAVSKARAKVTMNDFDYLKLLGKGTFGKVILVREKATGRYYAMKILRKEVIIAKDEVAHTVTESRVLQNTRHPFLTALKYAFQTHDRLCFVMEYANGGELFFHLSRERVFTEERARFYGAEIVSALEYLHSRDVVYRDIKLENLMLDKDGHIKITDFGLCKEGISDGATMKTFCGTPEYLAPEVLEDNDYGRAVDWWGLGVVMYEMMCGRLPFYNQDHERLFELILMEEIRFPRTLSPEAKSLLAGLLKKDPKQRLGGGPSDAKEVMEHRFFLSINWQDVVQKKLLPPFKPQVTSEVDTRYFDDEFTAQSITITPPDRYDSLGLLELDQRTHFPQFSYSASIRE

[4] = target: Serine/threonine-protein kinase PAK 4 (Homo sapiens, UniProt O96013); experiment: Selectivity interaction (ProQinase) EUB0000171b PAK4
Chain of Serine/threonine-protein kinase PAK 4 (O96013 whole entry, looked up): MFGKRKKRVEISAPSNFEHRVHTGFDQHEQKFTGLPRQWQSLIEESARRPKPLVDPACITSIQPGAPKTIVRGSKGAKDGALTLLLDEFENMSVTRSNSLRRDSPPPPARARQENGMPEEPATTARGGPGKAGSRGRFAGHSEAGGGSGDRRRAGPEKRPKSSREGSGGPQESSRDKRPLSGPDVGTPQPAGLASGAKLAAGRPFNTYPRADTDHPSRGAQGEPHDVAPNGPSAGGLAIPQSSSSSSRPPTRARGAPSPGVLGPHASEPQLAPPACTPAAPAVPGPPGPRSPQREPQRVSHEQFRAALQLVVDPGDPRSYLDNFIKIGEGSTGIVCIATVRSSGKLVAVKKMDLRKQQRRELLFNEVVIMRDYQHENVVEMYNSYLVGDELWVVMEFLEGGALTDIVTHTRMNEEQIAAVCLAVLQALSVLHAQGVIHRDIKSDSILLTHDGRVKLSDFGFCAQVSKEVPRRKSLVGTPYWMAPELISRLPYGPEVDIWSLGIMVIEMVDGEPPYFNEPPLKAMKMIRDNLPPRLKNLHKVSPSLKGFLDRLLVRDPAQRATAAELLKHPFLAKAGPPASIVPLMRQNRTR

[5] = target: Phosphatidylinositol 4-phosphate 5-kinase type-1 alpha (Homo sapiens) (UniProt Q99755); experiment: Selectivity interaction (KinomeScan (DiscoverX)) EUB0001079a PIP5K1A; conditions: at 1 µM
Chain of Phosphatidylinositol 4-phosphate 5-kinase type-1 alpha (Homo sapiens) (Q99755 whole entry): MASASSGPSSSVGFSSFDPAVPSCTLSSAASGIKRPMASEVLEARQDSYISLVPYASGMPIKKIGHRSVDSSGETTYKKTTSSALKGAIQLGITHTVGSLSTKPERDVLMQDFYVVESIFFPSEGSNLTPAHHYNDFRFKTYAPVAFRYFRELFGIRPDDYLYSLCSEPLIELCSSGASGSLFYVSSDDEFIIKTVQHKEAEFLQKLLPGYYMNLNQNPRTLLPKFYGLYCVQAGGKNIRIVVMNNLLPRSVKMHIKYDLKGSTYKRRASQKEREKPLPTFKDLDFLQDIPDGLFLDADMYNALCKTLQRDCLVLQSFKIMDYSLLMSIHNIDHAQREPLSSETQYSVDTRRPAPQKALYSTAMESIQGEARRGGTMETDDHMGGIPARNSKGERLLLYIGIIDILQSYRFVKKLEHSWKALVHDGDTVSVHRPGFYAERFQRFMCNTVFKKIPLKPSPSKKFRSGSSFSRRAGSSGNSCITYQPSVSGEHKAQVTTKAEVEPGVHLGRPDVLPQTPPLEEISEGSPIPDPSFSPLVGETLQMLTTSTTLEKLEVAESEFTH

[6] = target: [Pyruvate dehydrogenase (acetyl-transferring)] kinase isozyme 1, mitochondrial (Homo sapiens, UniProt Q15118); experiment: Selectivity interaction (Millipore kinase profiler) EUB0000124b PDK1; conditions: at 10 µM
[7] = target: T1, Non-receptor tyrosine-protein kinase TNK1 (Homo sapiens) (UniProt Q13470); experiment: Selectivity interaction (KinomeScan (DiscoverX)) EUB0000607a TNK1; conditions: at 10 µM
T1 sequence (whole entry): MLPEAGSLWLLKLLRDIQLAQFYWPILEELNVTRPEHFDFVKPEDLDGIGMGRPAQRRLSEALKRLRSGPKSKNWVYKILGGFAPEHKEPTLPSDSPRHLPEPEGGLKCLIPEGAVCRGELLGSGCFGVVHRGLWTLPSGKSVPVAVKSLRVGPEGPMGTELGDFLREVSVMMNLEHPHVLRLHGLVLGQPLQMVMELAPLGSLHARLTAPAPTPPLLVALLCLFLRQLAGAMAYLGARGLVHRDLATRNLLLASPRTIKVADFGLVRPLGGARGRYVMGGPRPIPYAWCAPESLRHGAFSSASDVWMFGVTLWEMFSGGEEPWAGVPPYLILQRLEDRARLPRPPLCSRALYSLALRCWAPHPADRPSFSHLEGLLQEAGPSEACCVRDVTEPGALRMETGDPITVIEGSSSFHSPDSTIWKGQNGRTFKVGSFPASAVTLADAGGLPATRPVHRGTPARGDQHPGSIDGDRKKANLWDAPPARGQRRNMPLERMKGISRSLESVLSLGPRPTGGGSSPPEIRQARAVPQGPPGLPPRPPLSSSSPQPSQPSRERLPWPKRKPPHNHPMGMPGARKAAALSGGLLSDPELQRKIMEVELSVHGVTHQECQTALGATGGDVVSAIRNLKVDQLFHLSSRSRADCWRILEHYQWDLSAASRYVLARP

[8] = target: Tyrosine-protein kinase Fer (Homo sapiens) (UniProt P16591); experiment: Selectivity interaction (KinomeScan (DiscoverX)) EUB0001049a FER; conditions: at 1 µM
Chain of Tyrosine-protein kinase Fer (Homo sapiens) (P16591 whole entry, looked up): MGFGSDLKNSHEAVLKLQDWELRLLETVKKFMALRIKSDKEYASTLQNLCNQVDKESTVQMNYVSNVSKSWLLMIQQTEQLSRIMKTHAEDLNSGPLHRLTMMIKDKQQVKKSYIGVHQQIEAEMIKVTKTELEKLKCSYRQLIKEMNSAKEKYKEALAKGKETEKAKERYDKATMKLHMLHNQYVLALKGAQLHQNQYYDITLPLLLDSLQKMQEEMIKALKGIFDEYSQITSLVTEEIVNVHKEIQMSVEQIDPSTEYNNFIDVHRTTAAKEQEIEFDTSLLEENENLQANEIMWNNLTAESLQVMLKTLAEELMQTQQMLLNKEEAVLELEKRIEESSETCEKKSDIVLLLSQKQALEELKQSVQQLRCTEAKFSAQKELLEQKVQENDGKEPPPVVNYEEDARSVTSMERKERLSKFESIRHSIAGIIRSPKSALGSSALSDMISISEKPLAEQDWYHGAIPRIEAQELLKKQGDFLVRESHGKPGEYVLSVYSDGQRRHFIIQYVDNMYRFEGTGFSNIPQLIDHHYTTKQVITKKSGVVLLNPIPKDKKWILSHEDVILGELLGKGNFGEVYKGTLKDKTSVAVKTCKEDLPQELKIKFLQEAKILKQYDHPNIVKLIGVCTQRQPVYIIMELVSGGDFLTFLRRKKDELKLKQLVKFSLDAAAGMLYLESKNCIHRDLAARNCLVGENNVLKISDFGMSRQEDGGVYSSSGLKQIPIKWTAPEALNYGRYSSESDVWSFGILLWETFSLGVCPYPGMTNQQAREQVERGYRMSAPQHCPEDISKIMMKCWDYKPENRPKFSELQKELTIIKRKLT

[9] = tested on: Epidermal growth factor receptor (Homo sapiens), P00533 [G719S]; conditions: at 10 µM
Chain of Epidermal growth factor receptor (Homo sapiens), P00533 [G719S] (P00533 whole entry G719S): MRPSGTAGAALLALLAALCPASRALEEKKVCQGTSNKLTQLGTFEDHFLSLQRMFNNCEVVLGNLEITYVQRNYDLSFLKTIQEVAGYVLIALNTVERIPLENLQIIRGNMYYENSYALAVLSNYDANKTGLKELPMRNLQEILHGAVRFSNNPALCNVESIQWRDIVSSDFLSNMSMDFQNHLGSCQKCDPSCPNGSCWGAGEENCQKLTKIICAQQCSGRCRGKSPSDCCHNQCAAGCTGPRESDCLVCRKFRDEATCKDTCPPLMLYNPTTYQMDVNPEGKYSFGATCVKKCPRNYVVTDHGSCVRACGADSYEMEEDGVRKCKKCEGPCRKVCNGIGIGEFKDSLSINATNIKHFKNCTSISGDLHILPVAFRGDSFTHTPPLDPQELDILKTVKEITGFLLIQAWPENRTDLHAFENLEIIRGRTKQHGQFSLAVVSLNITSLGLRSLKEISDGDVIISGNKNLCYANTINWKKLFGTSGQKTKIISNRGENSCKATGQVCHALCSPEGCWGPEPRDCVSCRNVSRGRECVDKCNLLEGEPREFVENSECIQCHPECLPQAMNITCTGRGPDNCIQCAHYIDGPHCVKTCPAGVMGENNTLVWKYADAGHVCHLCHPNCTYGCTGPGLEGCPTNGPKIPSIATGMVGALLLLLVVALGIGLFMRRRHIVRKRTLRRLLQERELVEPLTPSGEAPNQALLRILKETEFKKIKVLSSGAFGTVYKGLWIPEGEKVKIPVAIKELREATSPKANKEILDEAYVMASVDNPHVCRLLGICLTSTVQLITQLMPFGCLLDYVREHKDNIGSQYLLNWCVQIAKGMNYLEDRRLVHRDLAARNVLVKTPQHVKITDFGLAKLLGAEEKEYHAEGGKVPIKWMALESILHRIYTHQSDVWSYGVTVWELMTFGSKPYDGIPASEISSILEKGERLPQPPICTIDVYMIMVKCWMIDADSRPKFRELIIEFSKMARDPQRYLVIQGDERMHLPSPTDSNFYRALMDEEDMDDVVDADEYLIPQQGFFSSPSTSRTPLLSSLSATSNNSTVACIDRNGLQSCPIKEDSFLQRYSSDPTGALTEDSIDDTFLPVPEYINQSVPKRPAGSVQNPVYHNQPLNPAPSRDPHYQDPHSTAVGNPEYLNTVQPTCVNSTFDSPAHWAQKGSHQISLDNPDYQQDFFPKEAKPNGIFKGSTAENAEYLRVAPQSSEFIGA

[10] = target: cAMP-dependent protein kinase catalytic subunit beta (Homo sapiens) (UniProt P22694); experiment: Selectivity interaction (KinomeScan (DiscoverX)) EUB0000045b PRKACB
[11] = target: T2, Dual specificity mitogen-activated protein kinase kinase 4 (Homo sapiens) (UniProt P45985); experiment: Selectivity interaction (ActivX KiNativ screen (ex vivo kinase selectivity in human PBMCs)) EUB0001619a MAP2K4; format: cell-based; conditions: PBMC, at 1 µM
T2 sequence (whole entry): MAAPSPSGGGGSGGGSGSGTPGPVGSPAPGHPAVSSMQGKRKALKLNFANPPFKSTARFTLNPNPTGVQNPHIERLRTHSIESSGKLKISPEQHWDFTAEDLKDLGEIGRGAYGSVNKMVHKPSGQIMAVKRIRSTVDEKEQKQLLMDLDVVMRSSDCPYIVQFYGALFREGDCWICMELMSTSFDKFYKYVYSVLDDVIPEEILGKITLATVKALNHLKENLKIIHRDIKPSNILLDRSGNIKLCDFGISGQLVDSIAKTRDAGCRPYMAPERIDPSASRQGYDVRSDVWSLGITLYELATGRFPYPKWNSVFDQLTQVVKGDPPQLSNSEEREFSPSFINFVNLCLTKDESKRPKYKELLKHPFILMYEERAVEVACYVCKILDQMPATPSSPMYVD

[12] = target: T3, Serine/threonine-protein kinase D1 (Homo sapiens) (UniProt Q15139); experiment: Selectivity interaction (KinomeScan (DiscoverX)) EUB0001619a PRKD1; conditions: at 1 µM
T3 sequence (whole entry): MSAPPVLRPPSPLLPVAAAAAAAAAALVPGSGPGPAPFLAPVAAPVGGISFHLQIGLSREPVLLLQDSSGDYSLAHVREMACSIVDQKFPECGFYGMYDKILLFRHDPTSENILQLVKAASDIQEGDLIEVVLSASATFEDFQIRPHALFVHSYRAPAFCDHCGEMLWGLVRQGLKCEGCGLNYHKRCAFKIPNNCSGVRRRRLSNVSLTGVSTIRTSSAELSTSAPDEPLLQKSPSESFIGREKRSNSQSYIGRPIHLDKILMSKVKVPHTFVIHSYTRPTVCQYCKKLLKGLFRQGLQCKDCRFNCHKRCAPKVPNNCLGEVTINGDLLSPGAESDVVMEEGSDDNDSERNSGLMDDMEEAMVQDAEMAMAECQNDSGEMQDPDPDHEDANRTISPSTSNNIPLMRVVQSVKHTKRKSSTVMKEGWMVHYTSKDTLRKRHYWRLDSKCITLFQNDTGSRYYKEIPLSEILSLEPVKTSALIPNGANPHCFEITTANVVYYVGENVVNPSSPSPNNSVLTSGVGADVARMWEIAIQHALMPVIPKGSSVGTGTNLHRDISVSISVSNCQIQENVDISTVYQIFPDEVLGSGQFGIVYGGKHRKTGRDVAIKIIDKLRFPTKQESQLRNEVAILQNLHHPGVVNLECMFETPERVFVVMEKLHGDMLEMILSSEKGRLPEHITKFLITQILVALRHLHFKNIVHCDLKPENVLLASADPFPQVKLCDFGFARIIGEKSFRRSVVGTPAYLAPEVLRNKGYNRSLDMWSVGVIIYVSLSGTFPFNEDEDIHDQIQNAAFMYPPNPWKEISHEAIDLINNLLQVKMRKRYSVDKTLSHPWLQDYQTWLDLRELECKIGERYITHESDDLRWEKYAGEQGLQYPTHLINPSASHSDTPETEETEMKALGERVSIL

Chain of Misshapen-like kinase 1 (Q8N4C8 whole entry, looked up): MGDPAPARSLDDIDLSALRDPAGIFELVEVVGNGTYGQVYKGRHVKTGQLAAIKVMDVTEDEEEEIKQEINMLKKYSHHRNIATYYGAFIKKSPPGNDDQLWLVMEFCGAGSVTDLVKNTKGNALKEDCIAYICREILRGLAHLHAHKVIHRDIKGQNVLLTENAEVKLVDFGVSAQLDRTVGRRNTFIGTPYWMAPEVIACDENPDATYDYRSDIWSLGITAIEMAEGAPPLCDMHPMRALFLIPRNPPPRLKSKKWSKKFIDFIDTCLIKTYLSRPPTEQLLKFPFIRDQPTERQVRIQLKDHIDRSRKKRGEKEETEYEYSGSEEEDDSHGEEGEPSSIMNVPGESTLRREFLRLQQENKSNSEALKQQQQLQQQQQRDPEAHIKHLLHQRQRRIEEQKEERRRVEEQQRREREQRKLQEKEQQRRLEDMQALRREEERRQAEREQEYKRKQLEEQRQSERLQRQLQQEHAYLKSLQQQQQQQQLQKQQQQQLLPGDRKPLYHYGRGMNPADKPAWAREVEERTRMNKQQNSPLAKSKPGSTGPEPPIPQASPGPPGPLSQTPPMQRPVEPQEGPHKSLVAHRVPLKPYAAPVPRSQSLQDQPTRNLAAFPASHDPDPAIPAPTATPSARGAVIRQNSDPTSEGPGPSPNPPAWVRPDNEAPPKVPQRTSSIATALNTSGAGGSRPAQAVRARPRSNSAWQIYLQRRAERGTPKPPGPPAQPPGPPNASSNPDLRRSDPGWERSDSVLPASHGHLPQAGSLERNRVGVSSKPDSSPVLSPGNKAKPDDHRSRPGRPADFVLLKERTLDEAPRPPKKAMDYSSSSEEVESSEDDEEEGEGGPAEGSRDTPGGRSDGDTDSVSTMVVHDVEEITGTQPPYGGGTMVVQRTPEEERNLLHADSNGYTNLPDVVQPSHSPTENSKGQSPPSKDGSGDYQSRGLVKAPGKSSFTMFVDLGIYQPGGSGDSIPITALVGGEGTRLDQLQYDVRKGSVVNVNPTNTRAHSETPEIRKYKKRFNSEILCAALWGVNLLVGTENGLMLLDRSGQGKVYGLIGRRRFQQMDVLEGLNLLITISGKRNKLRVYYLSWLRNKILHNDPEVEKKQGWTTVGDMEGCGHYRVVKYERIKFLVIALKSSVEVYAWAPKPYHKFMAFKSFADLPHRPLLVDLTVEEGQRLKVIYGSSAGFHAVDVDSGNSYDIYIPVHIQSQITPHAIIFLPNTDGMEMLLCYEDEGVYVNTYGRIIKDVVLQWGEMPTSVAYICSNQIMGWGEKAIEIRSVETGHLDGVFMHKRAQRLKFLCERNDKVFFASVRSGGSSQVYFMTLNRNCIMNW

SMILES: CC(C)(O)[C@H](F)CN1Cc2cc(NC(=O)c3cnn4cccnc34)c(N3CCOCC3)cc2C1=O
- % of inhibition (Misshapen-like kinase 1): 80.5%

SMILES: Cc1ccc(-c2ccc3c(ccc4sc5c(c43)NC[C@@H](C)NC5=O)n2)cn1
- IC50 [1]: 70 nM

SMILES: CN(C)CCOc1ccc(-c2nc(-c3ccncc3)c(-c3ccc4c(c3)CC/C4=N\O)[nH]2)cc1
- % of control [2]: 12%

SMILES: C=CC(=O)Nc1cccc(C(=O)Nc2ccc(Nc3cc(-c4[nH]c(SC)nc4C)ccn3)cc2)c1
- % of control ([3]; at 1 µM): 92%
- % of control ([3]; at 5 µM): 78%
- % of control ([4]; at 1 µM): 92%
- % of control ([4]; at 5 µM): 76%

SMILES: Nc1cnc(N2CCc3cc(S(=O)(=O)Nc4c(F)cc(Cl)cc4F)cc(N4CCCC4=O)c32)nc1 [TP-020n]
- % of control [5]: 100%

SMILES: CC(=O)Nc1cccc(-n2c(=O)n(C3CC3)c(=O)c3c(Nc4ccc(I)cc4F)n(C)c(=O)c(C)c32)c1
- % of control [6]: 107%

SMILES: CNC(=O)Nc1ccc(-c2nc(N3CC4CCC(C3)O4)c3cnn(C4CCC5(CC4)OCCO5)c3n2)cc1
- % of control [7]: 78%

SMILES: COc1cc(Nc2nc(C)cc(-c3cnn4nc(OC)ccc34)n2)cc(C(F)(F)F)c1
- % of control [8]: 93%

SMILES: COCC(=O)NC/C=C/c1ccc2ncnc(Nc3ccc(Oc4ccc(C)nc4)c(C)c3)c2c1 [CP-724714]
- % of control [9]: 0%

SMILES: C=CC(=O)Nc1cc(-n2c(=O)ccc3cnc4ccc(-c5ccc(NS(C)(=O)=O)cc5)cc4c32)ccc1C
- % of control ([10]; at 1 µM): 79%
- % of control ([10]; at 10 µM): 100%

SMILES: N#Cc1cccc(-c2c[nH]c3ncnc(N4CCOCC4)c23)c1
- % of inhibition [11]: 2%
- % of control [12]: 100%
